We go through one molecule from patent publication US8952024B2, “Herbicidal pyrimidone derivatives” (E I du Pont de Nemours and Company, priority 2009, dated 2015).

The first assay concerns blackgrass (Alopecurus myosuroides). The assay can be described thus: Test B pre-/postemergence plant response. In kind it is in vivo. Particulars: 31 g ai/ha, postemergence; scale 0 to 100, 0 is no effect, 100 is complete control. In short, it runs like this:
(§1)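 Compound in solvent + surfactant applied pre-em (loam/sand) or post-em (plants 2–18 cm, peat medium); greenhouse hold 13–15 days; visual 0–100 control score.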
On to `COCCn1c(-c2ccccc2)ncc(C(=O)C2=C(O)CCCC2=O)c1=O` [Compound 85], for which the “Plant response rating, Blackgrass” value was determined as 5.

Still in this assay, the particulars now being: 62 g ai/ha, postemergence; 0 is no effect, 100 is complete control; 13 to 15 days.
For the molecule `COCCn1c(-c2ccccc2)ncc(C(=O)C2=C(O)CCCC2=O)c1=O` [Compound 85], the “Blackgrass plant response rating (0 to 100 scale)” value is given as 35.

The same assay, now with this note: Postemergence, 125 g ai/ha; visual rating after 13 to 15 days, scale 0 (no effect) to 100 (complete control).
Regarding `COCCn1c(-c2ccccc2)ncc(C(=O)C2=C(O)CCCC2=O)c1=O` [Compound 85], the “Plant response rating, Blackgrass” value turned out to be 35.

The assay is the same for the next values; noted with them: Postemergence, 250 g ai/ha; scale 0 to 100 (0 no effect, 100 complete control).
With `COCCn1c(-c2ccccc2)ncc(C(=O)C2=C(O)CCCC2=O)c1=O` [Compound 85], the “Plant response rating, Blackgrass” value is given as 50.

A further assay relates to corn (Zea mays). The assay can be described thus: Test B pre-/postemergence plant response. The assay is classed as in vivo. Particulars: 31 g ai/ha, postemergence; scale 0 to 100, 0 is no effect, 100 is complete control. In short, it runs like this:
as §1
Take `COCCn1c(-c2ccccc2)ncc(C(=O)C2=C(O)CCCC2=O)c1=O` [Compound 85]: the “Plant response rating, Corn” value came to 50.

Still in this assay, the particulars now being: 62 g ai/ha, postemergence; 0 is no effect, 100 is complete control; 13 to 15 days.
Regarding `COCCn1c(-c2ccccc2)ncc(C(=O)C2=C(O)CCCC2=O)c1=O` [Compound 85], the “Corn plant response rating (0 to 100 scale)” value came to 70.

Still in this assay, the particulars now being: Postemergence, 125 g ai/ha; visual rating after 13 to 15 days, scale 0 (no effect) to 100 (complete control).
For `COCCn1c(-c2ccccc2)ncc(C(=O)C2=C(O)CCCC2=O)c1=O` [Compound 85], the “Plant response rating, Corn” value amounted to 85.

The same assay, now with this note: Postemergence, 250 g ai/ha; scale 0 to 100 (0 no effect, 100 complete control).
For the molecule `COCCn1c(-c2ccccc2)ncc(C(=O)C2=C(O)CCCC2=O)c1=O` [Compound 85], the “Plant response rating, Corn” value amounted to 85.

The test system of the next assay is large crabgrass (Digitaria sanguinalis). The assay can be described thus: Test B pre-/postemergence plant response. In kind it is in vivo. Conditions: 31 g ai/ha, postemergence; scale 0 to 100, 0 is no effect, 100 is complete control. In short, it runs like this:
as §1
With `COCCn1c(-c2ccccc2)ncc(C(=O)C2=C(O)CCCC2=O)c1=O` [Compound 85], the “Plant response rating, Crabgrass, Large” value came out at 90.

Still in this assay, the particulars now being: 62 g ai/ha, postemergence; 0 is no effect, 100 is complete control; 13 to 15 days.
Consider `COCCn1c(-c2ccccc2)ncc(C(=O)C2=C(O)CCCC2=O)c1=O` [Compound 85], for which the “Crabgrass, Large plant response rating (0 to 100 scale)” value turned out to be 90.

Still in this assay, the particulars now being: Postemergence, 125 g ai/ha; visual rating after 13 to 15 days, scale 0 (no effect) to 100 (complete control).
Take `COCCn1c(-c2ccccc2)ncc(C(=O)C2=C(O)CCCC2=O)c1=O` [Compound 85]: the “Plant response rating, Crabgrass, Large” value stood at 90.

Staying with this assay, now noted: Postemergence, 250 g ai/ha; scale 0 to 100 (0 no effect, 100 complete control).
Turning to `COCCn1c(-c2ccccc2)ncc(C(=O)C2=C(O)CCCC2=O)c1=O` [Compound 85], the “Plant response rating, Crabgrass, Large” value was 95.

In another assay the test system is Surinam grass (Brachiaria decumbens). The assay can be described thus: Test B pre-/postemergence plant response. In kind it is in vivo. Conditions: 31 g ai/ha, postemergence; scale 0 to 100, 0 is no effect, 100 is complete control. Put shortly: as §1
`COCCn1c(-c2ccccc2)ncc(C(=O)C2=C(O)CCCC2=O)c1=O` [Compound 85]: the “Plant response rating, Surinam Grass” value is 75.

The same assay, now with this note: 62 g ai/ha, postemergence; 0 is no effect, 100 is complete control; 13 to 15 days.
Consider `COCCn1c(-c2ccccc2)ncc(C(=O)C2=C(O)CCCC2=O)c1=O` [Compound 85], for which the “Surinam Grass plant response rating (0 to 100 scale)” value was found to be 85.

The assay is the same for the next values; noted with them: Postemergence, 250 g ai/ha; scale 0 to 100 (0 no effect, 100 complete control).
On to `COCCn1c(-c2ccccc2)ncc(C(=O)C2=C(O)CCCC2=O)c1=O` [Compound 85], for which the “Plant response rating, Surinam Grass” value was 85.

Another assay deals with downy bromegrass (Bromus tectorum). The assay can be described thus: Test B pre-/postemergence plant response. In kind it is in vivo. Conditions: 31 g ai/ha, postemergence; scale 0 to 100, 0 is no effect, 100 is complete control. In short, it runs like this: as §1
For `COCCn1c(-c2ccccc2)ncc(C(=O)C2=C(O)CCCC2=O)c1=O` [Compound 85], the “Plant response rating, Bromegrass, Downy” value worked out at 0.

Staying with this assay, now noted: 62 g ai/ha, postemergence; 0 is no effect, 100 is complete control; 13 to 15 days.
Turning to `COCCn1c(-c2ccccc2)ncc(C(=O)C2=C(O)CCCC2=O)c1=O` [Compound 85], the “Bromegrass, Downy plant response rating (0 to 100 scale)” value is on record as 5.

The assay is the same for the next values; noted with them: Postemergence, 125 g ai/ha; visual rating after 13 to 15 days, scale 0 (no effect) to 100 (complete control).
For the molecule `COCCn1c(-c2ccccc2)ncc(C(=O)C2=C(O)CCCC2=O)c1=O` [Compound 85], the “Plant response rating, Bromegrass, Downy” value is given as 25.

Staying with this assay, now noted: Postemergence, 250 g ai/ha; scale 0 to 100 (0 no effect, 100 complete control).
For `COCCn1c(-c2ccccc2)ncc(C(=O)C2=C(O)CCCC2=O)c1=O` [Compound 85], the “Plant response rating, Bromegrass, Downy” value is given as 30.

The test system of the next assay is yellow nutsedge (Cyperus esculentus). The assay can be described thus: Test B pre-/postemergence plant response. The assay is classed as in vivo. Conditions: 31 g ai/ha, postemergence; scale 0 to 100, 0 is no effect, 100 is complete control. Put shortly:
as §1
`COCCn1c(-c2ccccc2)ncc(C(=O)C2=C(O)CCCC2=O)c1=O` [Compound 85]: the “Plant response rating, Nutsedge, Yellow” value amounted to 75.

Still in this assay, the particulars now being: 62 g ai/ha, postemergence; 0 is no effect, 100 is complete control; 13 to 15 days.
In the case of `COCCn1c(-c2ccccc2)ncc(C(=O)C2=C(O)CCCC2=O)c1=O` [Compound 85], the “Nutsedge, Yellow plant response rating (0 to 100 scale)” value came out at 85.

Staying with this assay, now noted: Postemergence, 250 g ai/ha; scale 0 to 100 (0 no effect, 100 complete control).
For the molecule `COCCn1c(-c2ccccc2)ncc(C(=O)C2=C(O)CCCC2=O)c1=O` [Compound 85], the “Plant response rating, Nutsedge, Yellow” value came out at 85.
